Measured values taken from patent US20240025906A1 (NEURON23, INC., priority 2022, published 2024).
Where a name gives a salt, the structure may show the parent alone.

Legend:
TYK2 JH2 = biological target: T1, TYK2 JH2 (Homo sapiens, UniProt P29597); test: TYK2 JH2 binding assay (KINOMEscan KdELECT competitive binding); conditions: TYK2 JH2 domain, KINOMEscan KdELECT (Assay A); read-out: Biochemical TYK2_DiscoverX_JH2_BND_Kd
T1 construct: purchased DiscoverX (KINOMEscan KdELECT service); host or cells: E. coli BL21-derived (T7 phage display) or HEK-293
T1 sequence (P29597 589-875 limits assumed): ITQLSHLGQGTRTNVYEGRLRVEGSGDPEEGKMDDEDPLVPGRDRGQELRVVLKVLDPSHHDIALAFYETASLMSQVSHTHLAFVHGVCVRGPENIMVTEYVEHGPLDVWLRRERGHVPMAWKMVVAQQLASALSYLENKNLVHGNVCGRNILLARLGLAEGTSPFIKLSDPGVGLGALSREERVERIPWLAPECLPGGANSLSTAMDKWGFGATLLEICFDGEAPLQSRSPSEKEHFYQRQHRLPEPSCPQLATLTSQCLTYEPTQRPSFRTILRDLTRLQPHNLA
In short: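 Competition binding, KdELECT format. Kinase (phage-tagged, E. coli BL21-derived host; or HEK-293, DNA-tagged) + ligand-coated streptavidin beads + cpd, 1 h RT, final DMSO 0.9%. Wash, elute 30 min with 0.5 μM non-biotinylated ligand; qPCR readout. Kd: 11-pt, 3-fold series.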

[1] = test system: JAK1/TYK2 pSTAT5 (Tyr694/699) in THP-1 cell line; test: IFNa-stimulated JAK1/TYK2 pSTAT5 (Tyr694/699) inhibition cellular assay, AlphaLISA; format: cell-based; conditions: Homo sapiens; THP-1 cells, IFNa-stimulated, AlphaLISA (Assay B); read-out: Cellular_THP1_IFNa-pSTATS_TYK2
In short: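 THP-1 cells (2e4/well) in HBSS preincubated 1 h at 37° C. with compound (final 10000–0.04 nM, 8 points, 6-fold), then stimulated with IFNa (100 ng/mL stock) for 30 min before lysis. pSTAT5 (Tyr694/699) read by AlphaLISA at 615 nm; IC50 from four-parameter logistic fit with bottom fixed at 0 and Hill slope at −1.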

Row | Kd (TYK2 JH2) | IC50 [1] | SMILES
1 | ≤ 100 nM | > 500 nM | CCNc1ncc(-c2ccccc2)c2cc(NC(=O)C3CC3)ncc12 [Example 846, N-(8-(ethylamino)-5-phenyl-2,7-naphthyridin-3-yl)cyclopropanecarboxamide]
2 | ≤ 100 nM | ≤ 500 nM | CNc1ncc(-c2ccc(-c3c(C)cnn3C)cc2)c2cc(NC(=O)C3CC3)ncc12 [Example 847, N-(5-(4-(1,4-dimethyl-1H-pyrazol-5-yl)phenyl)-8-(methylamino)-2,7-naphthyridin-3-yl)cyclopropanecarboxamide]
3 | ≤ 100 nM | > 500 nM | CNc1ncc(CCc2ccc(OC(F)(F)F)cc2)c2cc(NC(=O)C3CC3)ncc12 [Example 848, N-(8-(methylamino)-5-(4-(trifluoromethoxy)phenethyl)-2,7-naphthyridin-3-yl)cyclopropanecarboxamide]
4 | ≤ 100 nM | > 500 nM | CNc1ncc(C2=CCc3ccccc3O2)c2cc(NC(=O)C3CC3)ncc12 [Example 849, N-(5-(4H-chromen-2-yl)-8-(methylamino)-2,7-naphthyridin-3-yl)cyclopropanecarboxamide]
5 | ≤ 100 nM | ≤ 500 nM | CNc1ncc(C2=Cc3ccccc3CO2)c2cc(NC(=O)C3CC3)ncc12 [Example 850, N-(5-(1H-isochromen-3-yl)-8-(methylamino)-2,7-naphthyridin-3-yl)cyclopropanecarboxamide]
6 | ≤ 100 nM | ≤ 500 nM | CNc1ncc(-c2ccc(-c3cnn(C)n3)cc2)c2cc(NC(=O)C3CC3)ncc12 [Example 851, N-(5-(4-(2-methyl-2H-1,2,3-triazol-4-yl)phenyl)-8-(methylamino)-2,7-naphthyridin-3-yl)cyclopropanecarboxamide]
7 | ≤ 100 nM | > 500 nM | CNc1ncc(-c2ccn(CCOC)n2)c2cc(NC(=O)C3CC3)ncc12 [Example 852, N-(5-(1-(2-methoxyethyl)-1H-pyrazol-3-yl)-8-(methylamino)-2,7-naphthyridin-3-yl)cyclopropanecarboxamide]
8 | ≤ 100 nM | > 500 nM | CNc1ncc(-c2nc3n(n2)CCC3)c2cc(NC(=O)C3CC3)ncc12 [Example 853, N-(5-(6,7-dihydro-5H-pyrrolo[1,2-b][1,2,4]triazol-2-yl)-8-(methylamino)-2,7-naphthyridin-3-yl)cyclopropanecarboxamide formate]
9 | ≤ 100 nM | > 500 nM | CNc1ncc(-c2nc3c(o2)CCC(C(F)(F)F)C3)c2cc(NC(=O)C3CC3)ncc12 (stereo not drawn) [Example 855, N-(8-(methylamino)-5-(5-(trifluoromethyl)-4,5,6,7-tetrahydrobenzo[d]oxazol-2-yl)-2,7-naphthyridin-3-yl)cyclopropanecarboxamide]
10 | ≤ 100 nM | ≤ 500 nM | CNc1ncc(-c2ccc(Oc3cncs3)cc2)c2cc(NC(=O)C3CC3)ncc12 [Example 857, N-(8-(methylamino)-5-(4-(thiazol-5-yloxy)phenyl)-2,7-naphthyridin-3-yl)cyclopropanecarboxamide]
11 | ≤ 100 nM | ≤ 500 nM | CNc1ncc(-c2ccc(Oc3ccncc3)cc2)c2cc(NC(=O)C3CC3)ncc12 [Example 858, N-(8-(methylamino)-5-(4-(pyridin-4-yloxy)phenyl)-2,7-naphthyridin-3-yl)cyclopropanecarboxamide]
12 | ≤ 100 nM | ≤ 500 nM | CNc1ncc(-c2ccc(OCCOC)cc2)c2cc(NC(=O)C3CC3)ncc12 [Example 859, N-(5-(4-(2-methoxyethoxy)phenyl)-8-(methylamino)-2,7-naphthyridin-3-yl)cyclopropanecarboxamide]
13 | ≤ 100 nM | > 500 nM | CNc1ncc(-c2ccc(N3CCC3CC#N)cc2)c2cc(NC(=O)C3CC3)ncc12 (stereo not drawn) [Example 860, N-(5-(4-(2-(cyanomethyl)azetidin-1-yl)phenyl)-8-(methylamino)-2,7-naphthyridin-3-yl)cyclopropanecarboxamide]
14 | ≤ 100 nM | ≤ 500 nM | CNc1ncc(-c2ccc(O)cc2)c2cc(NC(=O)C3CC3)ncc12 [Example 861, N-(5-(4-hydroxyphenyl)-8-(methylamino)-2,7-naphthyridin-3-yl)cyclopropanecarboxamide]
15 | ≤ 100 nM | ≤ 500 nM | CNc1ncc(-c2ccc(Oc3ccnc(C)c3)cc2)c2cc(NC(=O)C3CC3)ncc12 [Example 862, N-(8-(methylamino)-5-(4-((2-methylpyridin-4-yl)oxy)phenyl)-2,7-naphthyridin-3-yl)cyclopropanecarboxamide]
16 | ≤ 100 nM | ≤ 500 nM | CNc1ncc(-c2ccc(Oc3ccccn3)cc2)c2cc(NC(=O)C3CC3)ncc12 [Example 863, N-(8-(methylamino)-5-(4-(pyridin-2-yloxy)phenyl)-2,7-naphthyridin-3-yl)cyclopropanecarboxamide]
17 | ≤ 100 nM | ≤ 500 nM | CNc1ncc(-c2ccc(Oc3cccnc3)cc2)c2cc(NC(=O)C3CC3)ncc12 [Example 864, N-(8-(methylamino)-5-(4-(pyridin-3-yloxy)phenyl)-2,7-naphthyridin-3-yl)cyclopropanecarboxamide]
18 | ≤ 100 nM | ≤ 500 nM | CNc1ncc(-c2ccc(Oc3ncn(C)n3)cc2)c2cc(NC(=O)C3CC3)ncc12 [Example 865, N-(5-(4-((1-methyl-1H-1,2,4-triazol-3-yl)oxy)phenyl)-8-(methylamino)-2,7-naphthyridin-3-yl)cyclopropanecarboxamide]
19 | ≤ 100 nM | ≤ 500 nM | CNc1ncc(CCc2ccc3nnn(C)c3c2)c2cc(NC(=O)C3CC3)ncc12 [Example 866, N-(5-(2-(1-methyl-1H-benzo[d][1,2,3]triazol-6-yl)ethyl)-8-(methylamino)-2,7-naphthyridin-3-yl)cyclopropanecarboxamide]
20 | ≤ 100 nM | ≤ 500 nM | CNc1ncc(-c2ccc(OCc3ccncc3)cc2)c2cc(NC(=O)C3CC3)ncc12 [Example 867, N-(8-(methylamino)-5-(4-(pyridin-4-ylmethoxy)phenyl)-2,7-naphthyridin-3-yl)cyclopropanecarboxamide]
21 | ≤ 100 nM | ≤ 500 nM | CNc1ncc(-c2ccc(COc3ccncc3)cc2)c2cc(NC(=O)C3CC3)ncc12 [Example 868, N-(8-(methylamino)-5-(4-((pyridin-4-yloxy)methyl)phenyl)-2,7-naphthyridin-3-yl)cyclopropanecarboxamide]
22 | ≤ 100 nM | > 500 nM | CNc1ncc(-c2ccc(Cn3ccc(=O)cc3)cc2)c2cc(NC(=O)C3CC3)ncc12 [Example 869, N-(8-(methylamino)-5-(4-((4-oxopyridin-1(4H)-yl)methyl)phenyl)-2,7-naphthyridin-3-yl)cyclopropanecarboxamide]
23 | ≤ 100 nM | ≤ 500 nM | CNc1ncc(-c2ccc(-c3cnnn3C)cc2)c2cc(NC(=O)C3CC3)ncc12 [Example 870, N-(5-(4-(1-methyl-1H-1,2,3-triazol-5-yl)phenyl)-8-(methylamino)-2,7-naphthyridin-3-yl)cyclopropanecarboxamide]
24 | ≤ 100 nM | ≤ 500 nM | CNc1ncc(-c2ccc(-c3cn(C)nn3)cc2)c2cc(NC(=O)C3CC3)ncc12 [Example 871, N-(5-(4-(1-methyl-1H-1,2,3-triazol-4-yl)phenyl)-8-(methylamino)-2,7-naphthyridin-3-yl)cyclopropanecarboxamide]
25 | ≤ 100 nM | ≤ 500 nM | CNc1ncc(-c2nn3ccnc3s2)c2cc(NC(=O)C3CC3)ncc12 [Example 872, N-(5-(imidazo[2,1-b][1,3,4]thiadiazol-2-yl)-8-(methylamino)-2,7-naphthyridin-3-yl)cyclopropanecarboxamide]
26 | ≤ 100 nM | ≤ 500 nM | CNc1ncc(-c2nn3c(C)ncc3o2)c2cc(NC(=O)C3CC3)ncc12 [Example 873, N-(8-(methylamino)-5-(5-methylimidazo[5,1-b][1,3,4]oxadiazol-2-yl)-2,7-naphthyridin-3-yl)cyclopropanecarboxamide]
27 | ≤ 100 nM | ≤ 500 nM | CNc1ncc(-c2nc3c(o2)CCC(OC)C3)c2cc(NC(=O)C3CC3)ncc12 (stereo not drawn) [Example 874, N-(5-(5-methoxy-4,5,6,7-tetrahydrobenzo[d]oxazol-2-yl)-8-(methylamino)-2,7-naphthyridin-3-yl)cyclopropanecarboxamide]
28 | ≤ 100 nM | ≤ 500 nM | CNc1ncc(-c2cc3cc(OC)ccn3n2)c2cc(NC(=O)C3CC3)ncc12 [Example 875, N-(5-(5-methoxypyrazolo[1,5-a]pyridin-2-yl)-8-(methylamino)-2,7-naphthyridin-3-yl)cyclopropanecarboxamide]
29 | ≤ 100 nM | ≤ 500 nM | CCNc1ncc(-c2cc3ccc(N4CCOCC4)cn3n2)c2cc(NC(=O)C3CC3)ncc12 [Example 876, N-(8-(ethylamino)-5-(6-morpholinopyrazolo[1,5-a]pyridin-2-yl)-2,7-naphthyridin-3-yl)cyclopropanecarboxamide]
30 | ≤ 100 nM | ≤ 500 nM | CNc1ncc(-c2cc3ccc(OC)cn3n2)c2cc(NC(=O)[C@H]3C[C@H]3C)ncc12 [Example 877, (1S,2R)—N-(5-(6-methoxypyrazolo[1,5-a]pyridin-2-yl)-8-(methylamino)-2,7-naphthyridin-3-yl)-2-methylcyclopropane-1-carboxamide]
